Reference: US20230203060A1 (GENFLEET THERAPEUTICS (SHANGHAI) INC., priority 2020, published 2023)

Tests used:
[1] = tested on: KRAS G12C mutant NCI-H358 cells; experiment: Cell proliferation inhibition experiment, 3D spheroid, CellTiter-Glo, NCI-H358; type: cell-based, human; settings: Homo sapiens, NCI-H358, 120 h, NCI-H358 (KRAS G12C mutant) 3D spheroid, 5 days with compound, CellTiter-Glo; read-out: H358 IC50
Procedure, shortened: (§1)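 CellTiter-Glo luminescence after 5 days' compound treatment (3.16-fold series, 0.1% DMSO) of overnight-formed spheroids in 2% FBS medium: H358 seeded at 800 cells/well in RPMI-1640, A549 at 400 cells/well in F-12K. IC50 derived by four-parameter fit of inhibition normalized to DMSO control and blank.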

[2] = tested on: A549 cells (KRAS G12S mutant); experiment: Cell proliferation inhibition experiment, 3D spheroid, CellTiter-Glo, A549; type: cell-based, human; settings: Homo sapiens, A549, 120 h, A549 (KRAS G12S mutant) 3D spheroid, 5 days with compound, CellTiter-Glo; read-out: A549 IC50
Procedure, shortened: as §1

| SMILES | IC50 [1] [µM] | IC50 [2] [µM] |
| --- | --- | --- |
| C=CC(=O)N1CCN2C(=O)c3c(N4CCOC[C@@H]4C)nc(-c4c(O)cccc4F)c(Cl)c3OC[C@H]2C1 [Z32] | 0.009 | > 5 |
| C=CC(=O)N1CCN2C(=O)c3c(N4CCC[C@@H]4C)nc(-c4c(O)cccc4F)c(Cl)c3OC[C@H]2C1 [Z49, (6aR)-8-acryloyl-1-((S)-2-methylpyrrolidin-1-yl)-4-chloro-3-(2-fluoro-6-hydroxyphenyl)-6,6a,7,8,9,10-hexahydro-12H-pyrazino[2,1-c]pyrido[3,4-f][1,4]oxazepin-12-one] | 0.004 | > 5 |
| C=CC(=O)N1CCN2C(=O)c3c(N4C[C@@H](N5CC(F)C5)CC4(C)C)nc(-c4ccccc4F)c(Cl)c3OC[C@H]2C1 [Z480-1, (R)-8-acryloyl-4-chloro-1-((S)-4-(3-fluoroazetidin-1-yl)-2,2-dimethylpyrrolidin-1-yl)-3-(2-fluorophenyl)-6,6a,7,8,9,10-hexahydro-12H-pyrazino[2,1-c]pyrido[3,4-f][1,4]oxazepin-12-one] | 0.0034 | 3.98 |
| C=CC(=O)N1CCN2C(=O)c3c(N4CC(N5CCOCC5)CC4(C)C)nc(-c4ccccc4F)c(Cl)c3OC[C@H]2C1 (single isomer, unassigned) [Z468-1] | 0.004 | 3.28 |
| C=CC(=O)N1CCN2C(=O)c3c(N4C[C@@H](N5CC(C#N)C5)CC4(C)C)nc(-c4ccccc4F)c(Cl)c3OC[C@H]2C1 (single isomer, unassigned) [Z637-2] | 0.0045 | 2.52 |
| C=CC(=O)N1CCN2C(=O)c3c(N4C[C@H](N(C)CC(F)(F)F)CC4(C)C)nc(-c4ccccc4F)c(Cl)c3OC[C@H]2C1 (single isomer, unassigned) [Z493] | 0.027 | 7.25 |
| C=CC(=O)N1CCN2C(=O)c3c(N4CCC(OC)C4(C)C)nc(-c4c(N)cccc4F)c(Cl)c3OC[C@H]2C1 (stereo partly drawn) [Z506, (6aR)-8-acryloyl-3-(2-amino-6-fluorophenyl)-4-chloro-1-(3-methoxy-2,2-dimethylpyrrolidin-1-yl)-6,6a,7,8,9,10-hexahydro-12H-pyrazino[2,1-c]pyrido[3,4-f][1,4]oxazepin-12-one] | 0.0008 | 9.19 |
| C=CC(=O)N1CCN2C(=O)c3c(N4C[C@@H](N(C)C)CC4(C)C)nc(-c4ccccc4)c(Cl)c3OC[C@H]2C1 (single isomer, unassigned) [Z655-1] | 0.038 | 3.32 |
| C=CC(=O)N1CCN2C(=O)c3c(N4C[C@H](N5CCN(C)CC5)C[C@@H]4C)nc(-c4ccccc4F)c(Cl)c3OC[C@H]2C1 [Z470-1] | 0.023 |  |
| C=CC(=O)N1CCN2C(=O)c3c(N4CCN(C)C[C@@H]4C)nc(-c4c(F)cccc4Cl)c(Cl)c3OC[C@H]2C1 [Z547, (6aR)-8-acryloyl-4-chloro-3-(2-chloro-6-fluorophenyl)-1-((S)-2,4-dimethylpiperazin-1-yl)-6,6a,7,8,9,10-hexahydro-12H-pyrazino[2,1-c]pyrido[3,4-f][1,4]oxazepin-12-one] | 0.0193 | 8.16 |
| C=CC(=O)N1CCN2C(=O)c3c(N4CC(O)CC4(C)C)nc(-c4c(F)cccc4OC)c(F)c3OC[C@H]2C1 (single isomer, unassigned) [Z450] | 0.0131 | 20.5 |
| C=CC(=O)N1CCN2C(=O)c3c(N4C[C@@H](O)CC4(C)C)nc(-c4ccccc4F)c(F)c3OC[C@H]2C1 (single isomer, unassigned) [Z408-1] | 0.0217 | 9.25 |
| C=CC(=O)N1CCN2C(=O)c3c(N4C[C@@H](N5CCN(C)CC5)C[C@@H]4C)nc(-c4ccccc4F)c(Cl)c3OC[C@H]2C1 [Z470-2] | 0.003 | 9.61 |
| C=CC(=O)N1CCN2C(=O)c3c(N4CCCC45CC5)nc(-c4c(O)cccc4F)c(Cl)c3OC[C@H]2C1 [Z56, (6aR)-8-acryloyl-4-chloro-3-(2-fluoro-6-hydroxyphenyl)-1-(4-azaspiro[2.4]heptan-4-yl)-6,6a,7,8,9,10-hexahydro-12H-pyrazino[2,1-c]pyrido[3,4-f][1,4]oxazepin-12-one] | 0.017 | > 7 |
| C=CC(=O)N1CCN2C(=O)c3c(NC(C)(C)C)nc(-c4ccccc4F)c(Cl)c3OC[C@H]2C1 [Z457, (R)-8-acryloyl-1-(tert-butylamino)-4-chloro-3-(2-fluorophenyl)-6,6a,7,8,9,10-hexahydro-12H-pyrazino[2,1-c]pyrido[3,4-f][1,4]oxazepin-12-one] | 0.0627 | 2.95 |
| C=CC(=O)N1CCN2C(=O)c3c(N4C[C@H](N5CC(C#N)C5)CC4(C)C)nc(-c4ccccc4F)c(Cl)c3OC[C@H]2C1 (single isomer, unassigned) [Z637-1] | 0.125 | 2.97 |

| SMILES | IC50 [1] [µM] | IC50 [2] [µM] |
| --- | --- | --- |
| C=CC(=O)N1CCN2C(=O)c3c(N4CC(O)CC4(C)C)nc(-c4ccccc4Cl)c(F)c3OC[C@H]2C1 (stereo partly drawn) [Z414-1, (6aR)-8-acryloyl-3-(2-chlorophenyl)-4-fluoro-1-(4-hydroxy-2,2-dimethylpyrrolidin-1-yl)-6,6a,7,8,9,10-hexahydro-12H-pyrazino[2,1-c]pyrido[3,4-f][1,4]oxazepin-12-one] | 0.019 | 8.89 |
| C=CC(=O)N1CCN2C(=O)c3c(N4C[C@H](N5CC(F)(F)C5)CC4(C)C)nc(-c4ccccc4F)c(Cl)c3OC[C@H]2C1 (single isomer, unassigned) [Z525-1] | 0.281 | 2.84 |
| C=CC(=O)N1CCN2C(=O)c3c(N4C[C@@H](N(C)C)CC4(C)C)nc(-c4cccc(F)c4F)c(Cl)c3OC[C@H]2C1 [Z473-1, (R)-8-acryloyl-4-chloro-3-(2,3-difluorophenyl)-1-((S)-4-(dimethylamino)-2,2-dimethylpyrrolidin-1-yl)-6,6a,7,8,9,10-hexahydro-12H-pyrazino[2,1-c]pyrido[3,4-f][1,4]oxazepin-12-one] | 0.022 |  |
| C=CC(=O)N1CCN2C(=O)c3c(N4C[C@@H](O)CC4(C)C)nc(-c4c(N)cccc4F)c(F)c3OC[C@H]2C1 [Z481, (6aR)-8-acryloyl-3-(2-amino-6-fluorophenyl)-4-fluoro-1-((S)-4-hydroxy-2,2-dimethylpyrrolidin-1-yl)-6,6a,7,8,9,10-hexahydro-12H-pyrazino[2,1-c]pyrido[3,4-f][1,4]oxazepin-12-one] | 0.0032 |  |
| C=CC(=O)N1CCN2C(=O)c3c(N4C[C@@H](C)N(C)C[C@@H]4C)nc(-c4ccccc4F)c(Cl)c3OC[C@H]2C1 [Z464] | 0.144 |  |
| C=CC(=O)N1CCN2C(=O)c3c(N4CCN(C)C[C@@H]4C)nc(-c4c(N)cccc4F)c(Cl)c3OC[C@H]2C1 [Z503, (6aR)-8-acryloyl-3-(2-amino-6-fluorophenyl)-4-chloro-1-((S)-2,4-dimethylpiperazin-1-yl)-6,6a,7,8,9,10-hexahydro-12H-pyrazino[2,1-c]pyrido[3,4-f][1,4]oxazepin-12-one] | 0.0095 |  |
| C=CC(=O)N1CCN2C(=O)c3c(N4C[C@@H](N5CC(OC)C5)CC4(C)C)nc(-c4ccccc4F)c(Cl)c3OC[C@H]2C1 [Z479-1, (R)-8-acryloyl-4-chloro-3-(2-fluorophenyl)-1-((S)-4-(3-methoxyazetidin-1-yl)-2,2-dimethylpyrrolidin-1-yl)-6,6a,7,8,9,10-hexahydro-12H-pyrazino[2,1-c]pyrido[3,4-f][1,4]oxazepin-12-one] | 0.0057 |  |
| C=CC(=O)N1CCN2C(=O)c3c(N4C[C@H](N5CCC5)CC4(C)C)nc(-c4ccccc4F)c(Cl)c3OC[C@H]2C1 (single isomer, unassigned) [Z471-2] | 0.091 |  |
| C=CC(=O)N1CCN2C(=O)c3c(N4CC[C@@H](N(C)C)C4(C)C)nc(-c4ccccc4F)c(Cl)c3OC[C@H]2C1 [Z502-1, (6aR)-8-acryloyl-4-chloro-1-(3-(dimethylamino)-2,2-dimethylpyrrolidin-1-yl)-3-(2-fluorophenyl)-6,6a,7,8,9,10-hexahydro-12H-pyrazino[2,1-c]pyrido[3,4-f][1,4]oxazepin-12(6aH)-one] | 0.0296 |  |
| C=CC(=O)N1CCN2C(=O)c3c(N4CC(N5CCN(C)CC5)CC4(C)C)nc(-c4c(O)cccc4F)c(Cl)c3OC[C@H]2C1 (stereo partly drawn) [Z467, (6aR)-8-acryloyl-4-chloro-1-(2,2-dimethyl-4-(4-methylpiperazin-1-yl)pyrrolidin-1-yl)-3-(2-fluoro-6-hydroxyphenyl)-6,6a,7,8,9,10-hexahydro-12H-pyrazino[2,1-c]pyrido[3,4-f][1,4]oxazepin-12-one] | 0.0008 |  |
| C=CC(=O)N1CCN2C(=O)c3c(N4CC(N(C)C)CC4(C)C)nc(-c4cccc(F)c4F)c(Cl)c3OC[C@H]2C1 (single isomer, unassigned) [Z473-2] | 0.012 |  |
| C=CC(=O)N1CCN2C(=O)c3c(N4CCN(C(=O)CC)C[C@@H]4C)nc(-c4ccccc4F)c(Cl)c3OC[C@H]2C1 [Z477, (R)-8-acryloyl-4-chloro-3-(2-fluorophenyl)-1-((S)-2-methyl-4-propionylpiperazin-1-yl)-6,6a,7,8,9,10-hexahydro-12H-pyrazino[2,1-c]pyrido[3,4-f][1,4]oxazepin-12(6aH)-one] | 0.0081 |  |
| C=CC(=O)N1CCN2C(=O)c3c(N4CCN(C)C[C@@H]4C)nc(C#CC)c(Cl)c3OC[C@H]2C1 [Z459, (R)-8-acryloyl-4-chloro-1-((S)-2,4-dimethylpiperazin-1-yl)-3-(prop-1-yn-1-yl)-6,6a,7,8,9,10-hexahydro-12H-pyrazino[2,1-c]pyrido[3,4-f][1,4]oxazepin-12-one] | 0.906 |  |
| C=CC(=O)N1CCN2C(=O)c3c(N4CCN(C)[C@@H](C)[C@H]4C)nc(-c4ccccc4F)c(Cl)c3OC[C@H]2C1 (single isomer, unassigned) [Z465-1] | 0.013 |  |
| C=CC(=O)N1CCN2C(=O)c3c(N4CCN(C)C[C@@H]4C)nc(-c4ccccc4Cl)c(Cl)c3OC[C@H]2C1 [Z461, (R)-8-acryloyl-4-chloro-3-(2-chlorophenyl)-1-((S)-2,4-dimethylpiperazin-1-yl)-6,6a,7,8,9,10-hexahydro-12H-pyrazino[2,1-c]pyrido[3,4-f][1,4]oxazepin-12-one] | 0.024 |  |
